Experimental data from patent publication US6737383B1, “Herbicidal oxadiazolidines” (priority 1999, dated 2004).

Tests used:
bedstraw = assay: Test B pre/postemergence bedstraw; format: in vivo, Galium aparine; details: Preemergence; for Plant response rating, Bedstraw: Rate 125 g/ha
Procedure, shortened: (§1)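 Response is a visual 0-to-10 score relative to untreated plants, where 0 means no effect and 10 means complete control, taken twelve to sixteen days after application. Treatments went onto soil at planting and onto foliage of 1- to 4-leaf plants, using a surfactant-containing non-phytotoxic solvent.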

blackgrass = assay: Test B pre/postemergence blackgrass; format: in vivo, Alopecurus myosuroides; details: Preemergence; for Plant response rating, Blackgrass: Rate 125 g/ha
Procedure, shortened: as §1

surinam grass = assay: Test B pre/postemergence surinam grass; format: in vivo, Brachiaria decumbens; details: Preemergence; for Plant response rating, B. signalgrass: Rate 125 g/ha
Procedure, shortened: as §1

cocklebur = assay: Test B pre/postemergence cocklebur; format: in vivo, Xanthium strumarium; details: Preemergence; for Plant response rating, Cocklebur: Rate 125 g/ha
Procedure, shortened: as §1

corn = assay: Test B pre/postemergence corn; format: in vivo, Zea mays; details: Preemergence; for Plant response rating, Corn: Rate 125 g/ha
Procedure, shortened: as §1

crabgrass = assay: Test B pre/postemergence crabgrass; format: in vivo, Digitaria sanguinalis; details: Preemergence; for Plant response rating, Crabgrass: Rate 125 g/ha
Procedure, shortened: as §1

giant foxtail = assay: Test B pre/postemergence giant foxtail; format: in vivo, Setaria faberii; details: Preemergence; for Plant response rating, Giant foxtail: Rate 125 g/ha
Procedure, shortened: as §1

morningglory = assay: Test B pre/postemergence morningglory; format: in vivo, Ipomoea hederacea; details: Preemergence; for Plant response rating, Morningglory: Rate 125 g/ha
Procedure, shortened: as §1

pigweed = assay: Test B pre/postemergence pigweed; format: in vivo, Amaranthus retroflexus; details: Preemergence; for Plant response rating, Redroot pigweed: Rate 125 g/ha
Procedure, shortened: as §1

rape = assay: Test B pre/postemergence rape; format: in vivo, Brassica napus; details: Preemergence; for Plant response rating, Rape: Rate 125 g/ha
Procedure, shortened: as §1

soybean = assay: Test B pre/postemergence soybean; format: in vivo, Glycine max; details: Preemergence; for Plant response rating, Soybean: Rate 125 g/ha
Procedure, shortened: as §1

sugar beet = assay: Test B pre/postemergence sugar beet; format: in vivo, Beta vulgaris; details: Preemergence; for Plant response rating, Sugarbeets: Rate 125 g/ha
Procedure, shortened: as §1

velvetleaf = assay: Test B pre/postemergence velvetleaf; format: in vivo, Abutilon theophrasti; details: Preemergence; for Plant response rating, Velvetleaf: Rate 125 g/ha
Procedure, shortened: as §1

wheat = assay: Test B pre/postemergence wheat; format: in vivo, Triticum aestivum; details: Preemergence; for Plant response rating, Wheat: Rate 125 g/ha
Procedure, shortened: as §1

wild oat = assay: Test B pre/postemergence wild oat; format: in vivo, Avena fatua; details: Preemergence; for Plant response rating, Wild oats: Rate 125 g/ha
Procedure, shortened: as §1

purple nutsedge = assay: Test B pre/postemergence purple nutsedge; format: in vivo, Cyperus rotundus; details: Preemergence; for Plant response rating, Nutsedge: Rate 125 g/ha
Procedure, shortened: as §1

[1] = Rate 62 g/ha, scale of 0 to 10 where 0 is no effect and 10 is complete control
[2] = scale of 0 to 10 where 0 is no effect and 10 is complete control
[3] = Rate 250 g/ha, scale 0 (no effect) to 10 (complete control)
[4] = Rate 500 g/ha, scale 0 to 10 (0 no effect, 10 complete control)

COCC(OC)n1c(=O)on(C(=O)N(c2ccccc2)C(C)C)c1=O (stereo not shown) [Compound 734]
Bedstraw plant response rating (bedstraw; [1]): 0
Plant response rating, Bedstraw (bedstraw; [2]): 0
Bedstraw plant response rating (bedstraw; [3]): 0
Bedstraw plant response rating (bedstraw; [4]): 0
Blackgrass plant response rating (blackgrass; [1]): 7
Plant response rating, Blackgrass (blackgrass; [2]): 9
Blackgrass plant response rating (blackgrass; [3]): 9
Blackgrass plant response rating (blackgrass; [4]): 10
B. signalgrass plant response rating (surinam grass; [1]): 9
Plant response rating, B. signalgrass (surinam grass; [2]): 9
B. signalgrass plant response rating (surinam grass; [3]): 9
B. signalgrass plant response rating (surinam grass; [4]): 9
Cocklebur plant response rating (cocklebur; [1]): 0
Plant response rating, Cocklebur (cocklebur; [2]): 0
Cocklebur plant response rating (cocklebur; [3]): 0
Cocklebur plant response rating (cocklebur; [4]): 0
Corn plant response rating (corn; [1]): 0
Plant response rating, Corn (corn; [2]): 5
Corn plant response rating (corn; [3]): 9
Corn plant response rating (corn; [4]): 9
Crabgrass plant response rating (crabgrass; [1]): 9
Plant response rating, Crabgrass (crabgrass; [2]): 9
Crabgrass plant response rating (crabgrass; [3]): 9
Crabgrass plant response rating (crabgrass; [4]): 10
Giant foxtail plant response rating (giant foxtail; [1]): 9
Plant response rating, Giant foxtail (giant foxtail; [2]): 10
Giant foxtail plant response rating (giant foxtail; [3]): 10
Giant foxtail plant response rating (giant foxtail; [4]): 10
Morningglory plant response rating (morningglory; [1]): 2
Plant response rating, Morningglory (morningglory; [2]): 2
Morningglory plant response rating (morningglory; [3]): 3
Morningglory plant response rating (morningglory; [4]): 6
Redroot pigweed plant response rating (pigweed; [1]): 2
Plant response rating, Redroot pigweed (pigweed; [2]): 7
Redroot pigweed plant response rating (pigweed; [3]): 8
Redroot pigweed plant response rating (pigweed; [4]): 8
Rape plant response rating (rape; [1]): 0
Plant response rating, Rape (rape; [2]): 2
Rape plant response rating (rape; [3]): 5
Rape plant response rating (rape; [4]): 7
Soybean plant response rating (soybean; [1]): 0
Plant response rating, Soybean (soybean; [2]): 0
Soybean plant response rating (soybean; [3]): 0
Soybean plant response rating (soybean; [4]): 7
Sugarbeets plant response rating (sugar beet; [1]): 0
Plant response rating, Sugarbeets (sugar beet; [2]): 2
Sugarbeets plant response rating (sugar beet; [3]): 5
Sugarbeets plant response rating (sugar beet; [4]): 8
Velvetleaf plant response rating (velvetleaf; [1]): 2
Plant response rating, Velvetleaf (velvetleaf; [2]): 3
Velvetleaf plant response rating (velvetleaf; [3]): 5
Velvetleaf plant response rating (velvetleaf; [4]): 7
Wheat plant response rating (wheat; [1]): 0
Plant response rating, Wheat (wheat; [2]): 7
Wheat plant response rating (wheat; [3]): 8
Wheat plant response rating (wheat; [4]): 9
Wild oats plant response rating (wild oat; [1]): 3
Plant response rating, Wild oats (wild oat; [2]): 8
Wild oats plant response rating (wild oat; [3]): 10
Wild oats plant response rating (wild oat; [4]): 10
Nutsedge plant response rating (purple nutsedge; [1]): 0
Plant response rating, Nutsedge (purple nutsedge; [2]): 0
Nutsedge plant response rating (purple nutsedge; [3]): 0

CCOC(CC)n1c(=O)on(C(=O)N(c2ccc(F)cc2)C(C)C)c1=O (stereo not shown) [Compound 742]
Plant response rating, Bedstraw (bedstraw; [2]): 0
Bedstraw plant response rating (bedstraw; [3]): 0
Bedstraw plant response rating (bedstraw; Rate 62 g/ha, scale 0 to 10): 0
Bedstraw plant response rating (bedstraw; [4]): 0
Plant response rating, Blackgrass (blackgrass; [2]): 0
Blackgrass plant response rating (blackgrass; [3]): 0
Blackgrass plant response rating (blackgrass; Rate 62 g/ha, scale 0 to 10): 0
Blackgrass plant response rating (blackgrass; [4]): 0
B. signalgrass plant response rating (surinam grass; [1]): 0
Plant response rating, B. signalgrass (surinam grass; [2]): 0
B. signalgrass plant response rating (surinam grass; [3]): 0
B. signalgrass plant response rating (surinam grass; [4]): 0
Plant response rating, Cocklebur (cocklebur; [2]): 0
Cocklebur plant response rating (cocklebur; [3]): 0
Cocklebur plant response rating (cocklebur; Rate 62 g/ha, scale 0 to 10): 0
Cocklebur plant response rating (cocklebur; [4]): 0
Plant response rating, Corn (corn; [2]): 0
Corn plant response rating (corn; [3]): 0
Corn plant response rating (corn; Rate 62 g/ha, scale 0 to 10): 0
Corn plant response rating (corn; [4]): 0
Plant response rating, Crabgrass (crabgrass; [2]): 0
Crabgrass plant response rating (crabgrass; [3]): 0
Crabgrass plant response rating (crabgrass; Rate 62 g/ha, scale 0 to 10): 0
Crabgrass plant response rating (crabgrass; [4]): 0
Plant response rating, Giant foxtail (giant foxtail; [2]): 0
Giant foxtail plant response rating (giant foxtail; [3]): 0
Giant foxtail plant response rating (giant foxtail; Rate 62 g/ha, scale 0 to 10): 0
Giant foxtail plant response rating (giant foxtail; [4]): 0
Plant response rating, Morningglory (morningglory; [2]): 0
Morningglory plant response rating (morningglory; [3]): 0
Morningglory plant response rating (morningglory; Rate 62 g/ha, scale 0 to 10): 0
Morningglory plant response rating (morningglory; [4]): 0
Plant response rating, Redroot pigweed (pigweed; [2]): 0
Redroot pigweed plant response rating (pigweed; [3]): 0
Redroot pigweed plant response rating (pigweed; Rate 62 g/ha, scale 0 to 10): 0
Redroot pigweed plant response rating (pigweed; [4]): 0
Plant response rating, Rape (rape; [2]): 0
Rape plant response rating (rape; [3]): 0
Rape plant response rating (rape; Rate 62 g/ha, scale 0 to 10): 0
Rape plant response rating (rape; [4]): 0
Plant response rating, Soybean (soybean; [2]): 0
Soybean plant response rating (soybean; [3]): 0
Soybean plant response rating (soybean; Rate 62 g/ha, scale 0 to 10): 0
Soybean plant response rating (soybean; [4]): 0
Plant response rating, Sugarbeets (sugar beet; [2]): 0
Sugarbeets plant response rating (sugar beet; [3]): 0
Sugarbeets plant response rating (sugar beet; Rate 62 g/ha, scale 0 to 10): 0
Sugarbeets plant response rating (sugar beet; [4]): 0
Plant response rating, Velvetleaf (velvetleaf; [2]): 0
Velvetleaf plant response rating (velvetleaf; [3]): 0
Velvetleaf plant response rating (velvetleaf; Rate 62 g/ha, scale 0 to 10): 0
Velvetleaf plant response rating (velvetleaf; [4]): 0
Plant response rating, Wheat (wheat; [2]): 0
Wheat plant response rating (wheat; [3]): 0
Wheat plant response rating (wheat; Rate 62 g/ha, scale 0 to 10): 0
Wheat plant response rating (wheat; [4]): 0
Plant response rating, Wild oats (wild oat; [2]): 0
Wild oats plant response rating (wild oat; [3]): 0
Wild oats plant response rating (wild oat; Rate 62 g/ha, scale 0 to 10): 0
Wild oats plant response rating (wild oat; [4]): 0
Plant response rating, Nutsedge (purple nutsedge; [2]): 0
Nutsedge plant response rating (purple nutsedge; [3]): 0
Nutsedge plant response rating (purple nutsedge; Rate 62 g/ha, scale 0 to 10): 0
Nutsedge plant response rating (purple nutsedge; [4]): 0
